Assay results reported in paper PMC10280131 (RSC Advances, 2023).
Marks after values point to notes of the source that are not given here.

Columns and labels:
[1] = target: Acetylcholinesterase (AChE) (Homo sapiens, UniProt P22303); test: Acetylcholinesterase inhibition screening; assay type: biochemical
[2] = Antioxidant assay by DPPH scavenging
male Wistar rats = assay type: in vivo, rat
[3] = tested on: liver, kidneys, heart, and brain; test: Histopathological examination of chronic toxicity study; assay type: in vivo, mice; conditions: H&E
AD-induced rats = test: T-maze test in AlCl3-induced AD rats; assay type: in vivo, rat; conditions: Treatment 4 weeks; for T-maze test, time taken to reach food: seconds, n = 10
[4] = tested on: Alzheimer's disease-induced rats; test: Beam balance test in AlCl3-induced AD rats; assay type: in vivo, rat; conditions: Treatment 4 weeks
[5] = tested on: brain tissue of AD-induced rats; test: Brain oxidative stress markers; assay type: in vivo, rat
Bcl-2 gene = Bcl-2 gene expression in brain samples of AD induced rats; assay type: in vivo, rat; conditions: AD rats treated vs AD rats
Bax gene = Bax gene expression in brain samples of AD induced rats; assay type: in vivo, rat; conditions: AD rats treated vs AD rats
Tau gene = Tau gene expression in brain samples of AD induced rats; assay type: in vivo, rat; conditions: AD rats treated vs AD rats
Wistar rats = test: Acute toxicity, oral, rats
[6] = male rats, 10 mg per kg body weight
[7] = male rats, 10 mg per kg body weight, one month

Sequence of Acetylcholinesterase (AChE) (P22303 32-614, species assumed): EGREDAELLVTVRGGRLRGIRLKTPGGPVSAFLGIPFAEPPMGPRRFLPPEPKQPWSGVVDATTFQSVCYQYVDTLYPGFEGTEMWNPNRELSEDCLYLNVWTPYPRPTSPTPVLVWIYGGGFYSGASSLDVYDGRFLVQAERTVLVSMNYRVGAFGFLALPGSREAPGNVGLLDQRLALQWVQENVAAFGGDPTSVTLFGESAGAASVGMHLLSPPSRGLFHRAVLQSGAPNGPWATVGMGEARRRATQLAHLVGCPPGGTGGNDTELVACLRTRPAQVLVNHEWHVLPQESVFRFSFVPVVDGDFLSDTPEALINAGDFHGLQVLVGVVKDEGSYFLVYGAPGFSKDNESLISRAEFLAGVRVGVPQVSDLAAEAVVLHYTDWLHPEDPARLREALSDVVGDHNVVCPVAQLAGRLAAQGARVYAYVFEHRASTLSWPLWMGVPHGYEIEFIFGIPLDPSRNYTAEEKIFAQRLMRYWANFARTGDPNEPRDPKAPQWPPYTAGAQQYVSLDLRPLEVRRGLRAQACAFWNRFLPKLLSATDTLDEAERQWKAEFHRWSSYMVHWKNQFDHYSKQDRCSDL

## Cc1cc(=O)oc2cc(OCC(=O)NN=C3CCCc4ccccc43)ccc12 [Compound 4a, N′-(3,4-dihydronaphthalen-1(2H)-ylidene)-2-((4-methyl-2-oxo-2H-chromen-7-yl)oxy)acetohydrazide]
[1]
  IC50: 13.1 µM
[2]; Concentration (0.01 mg)
  Percent of antioxidant activity (DPPH scavenging): 31.8 ± 0.2%
[2]; Concentration (0.05 mg)
  Percent of antioxidant activity (DPPH scavenging): 40.9 ± 3.1%

## Cc1cc(=O)oc2cc(OCC(=O)NN=C3C(=O)Nc4ccccc43)ccc12 [Compound 4b, 2-((4-Methyl-2-oxo-2H-chromen-7-yl)oxy)-N′-(2-oxoindolin-3-ylidene) acetohydrazide]
[1]
  IC50: 20.9 µM
[2]; Concentration (0.01 mg)
  Percent of antioxidant activity (DPPH scavenging): 31.8 ± 1.2%
[2]; Concentration (0.05 mg)
  Percent of antioxidant activity (DPPH scavenging): 35.00 ± 1.00%

## Cc1cc(=O)oc2cc(OCC(=O)NN=C3CCc4ccccc43)ccc12 [Compound 4c, N′-(2,3-Dihydro-1H-inden-1-ylidene)-2-((4-methyl-2-oxo-2H-chromen-7-yl)oxy)acetohydrazide]
[1]
  IC50: 2.21 µM
[2]; Concentration (0.01 mg)
  Percent of antioxidant activity (DPPH scavenging): 28.00 ± 0.4%
[2]; Concentration (0.05 mg)
  Percent of antioxidant activity (DPPH scavenging): 57.14 ± 2.77%
Male Wistar rats; 10 mg per kg b.wt orally, male Wistar rats, one month
  Signs of chronic toxicity: didn't see any indication of harmfulness
Male Wistar rats; 10 mg per kg b.wt, one month
  Change in blood profile levels vs control rats: insignificant changes
  Change in creatinine level vs untreated group: significant increase
  Change in hepatic enzyme levels (AST, ALT, and ALP) vs control group: insignificant difference
  Change in total urea level vs untreated group: insignificant change
Male Wistar rats; [6]
  ALP: 136.00 ± 9.00 ^a U/l
  ALT: 79.00 ± 4.40 ^a U/l
  AST: 32.00 ± 1.20 ^a U/l
  Creatinine: 2.80 ± 0.07 mg/dL
  Urea: 20.00 ± 1.57 mg/dL
Male Wistar rats; [7]
  Haematocrit: 45.00 ± 1.87 ^a %
  Hemoglobin (Hb): 14.58 ± 0.59 ^a g L^−1
  Lymphocyte: 7.62 ± 0.66 ^a 10^3 cm^−1
  MPV: 8.66 ± 0.19 ^a fL
  Mean corpuscular hemoglobin (MCH): 17.78 ± 0.88 ^a pg
  Mean corpuscular hemoglobin concentration (MCHC): 33.98 ± 0.25 ^a g dL^−1
  Mean corpuscular volume (MCV): 59.00 ± 0.03 ^a fL
  Monocyte: 1.93 ± 0.06 ^a 10^3 cm^−1
  Neutrophils: 2.39 ± 0.09 ^a 10^3 cm^−1
  Platelets: 465.00 ± 12.00 ^a 10^3 mm^−1
  RDW-CV: 15.80 ± 0.19 ^a %
  Red blood cells (RBCs): 8.00 ± 0.08 ^a million cells per mm
  White blood cells WBCs: 10.89 ± 1.90 ^a 10^3 cmm^−1
[3]
  Heart and brain histopathology: no histopathological damage
  Kidney histopathology: no histopathological alterations
  Liver histopathology: slight Kupffer cell proliferation
AD-induced rats
  T-maze test, % improvement: 148.37%
  T-maze test, time taken to reach food: 28.20 ± 1.80 Sc
[4]
  Beam balance test time: 8.99 ± 1.00 Sc
  Beam balance test, % improvement: 60.00%
[5]; AD-induced rats
  GSH % improvement: 27.17%
  MDA % improvement: 90.64%
[5]; AD-induced rats, n = 8
  GSH: 21.66 ± 1.21 mg per g tissues
  MDA: 22.43 ± 1.66 mg per g tissues
[5]; vs AD group
  GSH % change to disease: 59.26%
  MDA % change to disease: 32.19%
Bcl-2 gene
  Expression of Bcl-2 gene: improved expression
Bax gene
  Expression of Bax gene: reduced expression
Tau gene
  Expression of Tau gene: reduced expression
Wistar rats; 50 mg per kg b.wt, rats
  Mortality: No mortality
Wistar rats; 100 mg per kg b.wt, post 24 h, one rat of 4
  Mortality: 25%

## Cc1cc(=O)oc2cc(OCC(=O)NN=Cc3ccc(C(=O)O)cc3)ccc12 [Compound 4d, 4-((2-(2-((4-Methyl-2-oxo-2H-chromen-7-yl)oxy)acetyl) hydrazineylidene)methyl) benzoic acid]
[1]
  IC50: 3.15 µM
[2]; Concentration (0.01 mg)
  Percent of antioxidant activity (DPPH scavenging): 4.5 ± 0.4%
[2]; Concentration (0.05 mg)
  Percent of antioxidant activity (DPPH scavenging): 10.3 ± 0.33%

## COc1cc2c(cc1OC)C(=O)C(CC1CCN(Cc3ccccc3)CC1)C2 (centres unmarked) [Donepezil, reference compound]
AD-induced rats
  T-maze test, % improvement: 181.70%
  T-maze test, time taken to reach food: 23.10 ± 1.70 Sc
[4]
  Beam balance test time: 9.80 ± 0.88 Sc
  Beam balance test, % improvement: 67.98%

## O=C1O[C@H]([C@@H](O)CO)C(O)=C1O [Vitamin C, ascorbic acid, reference compound]
[2]; Concentration (0.01 mg)
  Percent of antioxidant activity (DPPH scavenging): 80.00 ± 5.00%
[2]; Concentration (0.05 mg)
  Percent of antioxidant activity (DPPH scavenging): 89.00 ± 6.99%
